Experimental data as given in US7560458B2, “Triazolopyrimidine derivatives as glycogen synthase kinase 3 inhibitors” (Janssen Pharmaceutica, N.V., priority 2003, dated 2009).

Experiments:
GSK3alpha = GSK3alpha (Homo sapiens, UniProt P49840); test: GSK3alpha assay (same as the GSK3beta assay, GSK3alpha 0.25 ng/μl); assay type: biochemical; conditions: −log IC50 (M); given as ranges (>8; 7-8; <7); read-out: pIC50 (GSK3alpha) (converted)
Method: (§1) GSK3beta assays were performed at room temperature in a 100 μl reaction volume of 25 mM Tris (ph 7.4) containing 10 mM MgCl2.6H2O 1 mM DTT, 0.1 mg/ml BSA, 5% glyceol and containing 5.7 ng/μl GSK3β, 5 μM biotinylated phosphorylated CREB peptide, 1 μM APT, 0.85 μCi/ml ATP-P^33 and a suitable amount of a test compound of formula (I). After one hour, the reaction was terminated by adding 70 μl of Stop mix (0.1 mM APT, 5 mg/ml streptavidin coated PVT SPA bead pH 11.0). The beads to which the phosphorylated CREB peptide is attached were allowed to settle overnight and the radioactivity of the beads was counted in a microtiterplate scintillation counter and compared with the results obtained in a control experiment (without the presence of a test compound) in order to determine the percentage of GSK3β inhibition. The IC50 value, i.e. the concentration (M) of the test compound at which 50% of GSK3β is inhibited, was calculated from the dose response curve obtained by performing the above-described GSKK3β assay in the presence of different amounts of the test compound.
The GSK3alpha assay was performed in the same way as described above for the GSK3beta assay except for the concentration of GSK3alpha which is 0.25 ng/μl.

GSK3β = GSK3β (Homo sapiens, UniProt P49841); test: GSK3beta assay (SPA, biotinylated phosphorylated CREB peptide, ATP-P33); assay type: biochemical; conditions: −log IC50 (M); given as ranges (>8; 7-8; <7); read-out: pIC50 (GSK3beta) (converted)
Method: as §1

Sequence of GSK3β (P49841 whole entry, species assumed): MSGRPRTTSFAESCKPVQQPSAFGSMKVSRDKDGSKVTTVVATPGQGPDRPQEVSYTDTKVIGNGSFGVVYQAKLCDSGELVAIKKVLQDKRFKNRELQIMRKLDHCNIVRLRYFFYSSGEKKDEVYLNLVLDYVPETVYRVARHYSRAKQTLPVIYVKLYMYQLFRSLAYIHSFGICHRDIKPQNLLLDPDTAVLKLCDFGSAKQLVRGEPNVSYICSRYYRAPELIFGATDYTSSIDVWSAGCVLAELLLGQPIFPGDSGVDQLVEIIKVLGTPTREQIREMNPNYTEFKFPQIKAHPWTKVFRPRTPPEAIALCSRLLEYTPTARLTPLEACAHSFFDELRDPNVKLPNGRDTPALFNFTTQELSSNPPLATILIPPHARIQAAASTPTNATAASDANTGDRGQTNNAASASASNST
Sequence of GSK3alpha (P49840 whole entry, species assumed): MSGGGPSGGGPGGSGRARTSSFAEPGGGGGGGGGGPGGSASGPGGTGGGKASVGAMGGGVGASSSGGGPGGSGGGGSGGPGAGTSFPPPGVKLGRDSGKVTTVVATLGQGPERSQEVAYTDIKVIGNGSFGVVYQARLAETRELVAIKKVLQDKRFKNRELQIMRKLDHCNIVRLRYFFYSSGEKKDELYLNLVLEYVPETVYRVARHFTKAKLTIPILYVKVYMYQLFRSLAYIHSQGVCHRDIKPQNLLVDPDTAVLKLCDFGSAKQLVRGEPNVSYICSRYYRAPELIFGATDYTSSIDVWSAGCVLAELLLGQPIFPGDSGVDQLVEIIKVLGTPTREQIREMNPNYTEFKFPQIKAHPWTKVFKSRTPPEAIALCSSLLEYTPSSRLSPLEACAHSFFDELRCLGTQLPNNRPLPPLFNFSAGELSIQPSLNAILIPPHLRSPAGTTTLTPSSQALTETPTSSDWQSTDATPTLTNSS

| Compound | IC50 (GSK3alpha) [M] | IC50 (GSK3β) [M] |
| --- | --- | --- |
| O=C(O)c1ccc(Nc2ncc3nnn(-c4cccc(Br)c4)c3n2)cc1 [Compound 124] | < 1e-08 | < 1e-08 |
| COCc1cccc(-n2nnc3cnc(Nc4cccc(CCO)c4)nc32)c1 [Compound 151] | < 1e-08 | < 1e-08 |
| COCc1cccc(-n2nnc3cnc(Nc4cccc(C(C)=O)c4)nc32)c1 [Compound 86] | < 1e-08 | < 1e-08 |
| COCc1cccc(Nc2ncc3nnn(-c4cccc(COC)c4)c3n2)c1 [Compound 132] | < 1e-08 | < 1e-08 |
| CS(=O)(=O)Nc1cccc(Nc2ncc3nnn(-c4cccc(CO)c4)c3n2)c1 [Compound 62] | < 1e-08 | < 1e-08 |
| OCCc1ccc(-n2nnc3cnc(Nc4ccc(F)cc4)nc32)cc1 [Compound 291] | < 1e-08 | 1e-08 to 1e-07 |
| CCOC(=O)NCc1cccc(-n2nnc3cnc(Nc4cccc(NS(C)(=O)=O)c4)nc32)c1 [Compound 217] | < 1e-08 | < 1e-08 |
| CCOc1ccc(Nc2ncc3nnn(-c4ccccc4)c3n2)cn1 [Compound 82] | < 1e-08 | 1e-08 to 1e-07 |
| CC(=O)NCc1cccc(Nc2ncc3nnn(-c4cccc(CCO)c4)c3n2)c1 [Compound 167] | < 1e-08 | < 1e-08 |
| COCc1cccc(-n2nnc3cnc(Nc4ccc(C(=O)O)c(OC)c4)nc32)c1 [Compound 304] | < 1e-08 | < 1e-08 |
| CN(C)C(=O)c1ccc(Nc2ncc3nnn(-c4cccc(CCO)c4)c3n2)cc1 [Compound 330] | < 1e-08 | < 1e-08 |
| COCCOCc1cccc(-n2nnc3cnc(Nc4ccc(CCN)cc4)nc32)c1 [Compound 318] | 1e-08 to 1e-07 | 1e-08 to 1e-07 |
| O=C(O)c1ccc(Nc2ncc3nnn(-c4cccc(F)c4)c3n2)cc1 [Compound 30] | < 1e-08 | < 1e-08 |
| COCCOc1cccc(-n2nnc3cnc(Nc4cccc(CNC(=O)OC(C)(C)C)c4)nc32)c1 [Compound 303] | < 1e-08 | 1e-08 to 1e-07 |
| NS(=O)(=O)c1cccc(Nc2ncc3nnn(-c4cccc(CO)c4)c3n2)c1 [Compound 36] | < 1e-08 | < 1e-08 |
| CC(=O)NCc1cccc(-n2nnc3cnc(Nc4cccc(NS(C)(=O)=O)c4)nc32)c1 [Compound 99] | < 1e-08 | < 1e-08 |
| COCCOc1cccc(-n2nnc3cnc(Nc4ccc(CCN)cc4)nc32)c1 [Compound 319] | 1e-08 to 1e-07 | 1e-08 to 1e-07 |
| OCCc1ccc(Nc2ncc3nnn(-c4cccc(F)c4)c3n2)cc1 [Compound 147] | < 1e-08 | < 1e-08 |
| CNC(=O)c1ccc(Nc2ncc3nnn(-c4cccc(OCCOC)c4)c3n2)cc1 [Compound 325] | < 1e-08 | 1e-08 to 1e-07 |
| CS(=O)(=O)c1cccc(Nc2ncc3nnn(-c4cccc(F)c4)c3n2)c1 [Compound 44] | < 1e-08 | < 1e-08 |
| Nc1cccc(Nc2ncc3nnn(-c4cccc(F)c4)c3n2)c1 [Compound 12] | 1e-08 to 1e-07 | < 1e-08 |

| Compound | IC50 (GSK3alpha) [M] | IC50 (GSK3β) [M] |
| --- | --- | --- |
| CNS(=O)(=O)c1cccc(Nc2ncc3nnn(-c4cccc(F)c4)c3n2)c1 [Compound 95] | < 1e-08 | < 1e-08 |
| N#CCc1cccc(-n2nnc3cnc(Nc4ccc(Cl)cc4)nc32)c1 [Compound 337] | < 1e-08 | < 1e-08 |
| CS(=O)(=O)Nc1cccc(Nc2ncc3nnn(-c4cccc(S(N)(=O)=O)c4)c3n2)c1 [Compound 58] | < 1e-08 | < 1e-08 |
| COCCOCc1cccc(-n2nnc3cnc(Nc4ccc(CN)cc4)nc32)c1 [Compound 314] | 1e-08 to 1e-07 | 1e-08 to 1e-07 |
| O=C(O)Cc1cccc(Nc2ncc3nnn(-c4cccc(F)c4)c3n2)c1 [Compound 25] | < 1e-08 | 1e-08 to 1e-07 |
| COCCOc1cccc(-n2nnc3cnc(Nc4ccc(C(=O)N(C)C)cc4)nc32)c1 [Compound 326] | 1e-08 to 1e-07 | 1e-08 to 1e-07 |
| CC(C)CC(=O)NCc1cccc(-n2nnc3cnc(Nc4cccc(NS(C)(=O)=O)c4)nc32)c1 [Compound 189] | < 1e-08 | < 1e-08 |
| COCCOCc1cccc(-n2nnc3cnc(Nc4ccc(C(N)=O)cc4)nc32)c1 [Compound 286] | < 1e-08 | < 1e-08 |
| COc1cccc(-n2nnc3cnc(Nc4cccc(C(C)=O)c4)nc32)c1 [Compound 51] | < 1e-08 | < 1e-08 |
| O=C(O)c1ccc(Nc2ncc3nnn(-c4ccccc4)c3n2)cc1 [Compound 123] | < 1e-08 | < 1e-08 |
| CC(C)(C)OC(=O)NCc1ccc(Nc2ncc3nnn(-c4cccc(F)c4)c3n2)cc1 [Compound 294] | < 1e-08 | < 1e-08 |
| N#CCc1cccc(-n2nnc3cnc(Nc4ccc(CNCC(F)(F)F)cc4)nc32)c1 [Compound 311] | < 1e-08 | < 1e-08 |
| N#CCc1cccc(-n2nnc3cnc(Nc4cccc(CCO)c4)nc32)c1 [Compound 276] | < 1e-08 | < 1e-08 |
| CC(=O)Nc1ccc(Nc2ncc3nnn(-c4cccc(F)c4)c3n2)cn1 [Compound 87] | < 1e-08 | 1e-08 to 1e-07 |
| CC(C)CC(=O)NCc1cccc(-n2nnc3cnc(Nc4ccc(C#N)cc4)nc32)c1 [Compound 190] | < 1e-08 | 1e-08 |
| Cc1cccc(Nc2ncc3nnn(-c4cccc(F)c4)c3n2)c1 [Compound 14] | < 1e-08 | 1e-08 to 1e-07 |
| COCc1cccc(-n2nnc3cnc(Nc4ccc(OC)nc4)nc32)c1 [Compound 133] | < 1e-08 | < 1e-08 |
| COCc1cccc(-n2nnc3cnc(Nc4cccc(C(=O)O)c4)nc32)c1 [Compound 121] | 1e-08 to 1e-07 | 1e-08 to 1e-07 |
| CN(C)CCOc1ccc(Nc2ncc3nnn(-c4cccc(F)c4)c3n2)cc1 [Compound 296] | 1e-08 to 1e-07 | 1e-08 to 1e-07 |
| N#CCc1cccc(-n2nnc3cnc(Nc4cccc(C#N)c4)nc32)c1 [Compound 272] | < 1e-08 | < 1e-08 |
| NC(=O)CNC(=O)c1cccc(Nc2ncc3nnn(-c4cccc(CC(=O)O)c4)c3n2)c1 [Compound 176] | 1e-08 to 1e-07 | 1e-08 to 1e-07 |

| Compound | IC50 (GSK3alpha) [M] | IC50 (GSK3β) [M] |
| --- | --- | --- |
| CS(=O)(=O)Nc1cccc(Nc2ncc3nnn(-c4cccc(CC#N)c4)c3n2)c1 [Compound 264] | < 1e-08 | < 1e-08 |
| CS(=O)(=O)Nc1cccc(Nc2ncc3nnn(-c4cccc(CCO)c4)c3n2)c1 [Compound 256] | < 1e-08 | < 1e-08 |
| O=C(O)Cc1ccc(Nc2ncc3nnn(-c4cccc(CNC(=O)C5CC5)c4)c3n2)cc1 [Compound 207] | < 1e-08 | < 1e-08 |
| CCOC(=O)NCc1cccc(-n2nnc3cnc(Nc4ccc(C(N)=O)cc4)nc32)c1 [Compound 218] | < 1e-08 | < 1e-08 |
| COc1cccc(-n2nnc3cnc(Nc4cccc(NC(C)=O)c4)nc32)c1 [Compound 42] | < 1e-08 | < 1e-08 |
| COCc1cccc(-n2nnc3cnc(Nc4cccc(S(=O)(=O)NCCO)c4)nc32)c1 [Compound 142] | < 1e-08 | < 1e-08 |
| COCc1cccc(-n2nnc3cnc(Nc4ccc(Cl)cc4)nc32)c1 [Compound 338] | < 1e-08 | < 1e-08 |
| COc1cccc(-n2nnc3cnc(Nc4ccc(C(=O)O)cc4)nc32)c1 [Compound 246] | < 1e-08 | < 1e-08 |
| CCOC(=O)NCc1cccc(-n2nnc3cnc(Nc4cccc(COC)c4)nc32)c1 [Compound 216] | < 1e-08 | < 1e-08 |
| CC(C)CC(=O)NCc1cccc(-n2nnc3cnc(Nc4ccc(C(=O)NCC(=O)O)cc4)nc32)c1 [Compound 192] | < 1e-08 | < 1e-08 |
| COCc1cccc(Nc2ncc3nnn(-c4cccc(CNC(=O)C5CC5)c4)c3n2)c1 [Compound 201] | < 1e-08 | < 1e-08 |
| CC(=O)c1cccc(Nc2ncc3nnn(-c4ccccc4)c3n2)c1 [Compound 60] | < 1e-08 | < 1e-08 |
| CS(=O)(=O)Nc1cccc(Nc2ncc3nnn(-c4cccc(CC(=O)O)c4)c3n2)c1 [Compound 180] | 1e-08 to 1e-07 | 1e-08 to 1e-07 |
| COCc1cccc(-n2nnc3cnc(Nc4cccc(C#N)c4)nc32)c1 [Compound 97] | < 1e-08 | < 1e-08 |
| CC(C)CC(=O)NCc1cccc(-n2nnc3cnc(Nc4cccc(C#N)c4)nc32)c1 [Compound 185] | < 1e-08 | < 1e-08 |
| CC(=O)NCc1cccc(-n2nnc3cnc(Nc4cccc(S(C)(=O)=O)c4)nc32)c1 [Compound 113] | < 1e-08 | < 1e-08 |
| OCCc1ccc(Nc2ncc3nnn(-c4ccc(CCO)cc4)c3n2)cc1 [Compound 293] | < 1e-08 | > 1e-07 |
| O=C(NCc1cccc(-n2nnc3cnc(Nc4ccc(CCO)cc4)nc32)c1)C12CC3CC(CC(C3)C1)C2 [Compound 241] | 1e-08 to 1e-07 | 1e-08 to 1e-07 |
| O=C(O)c1ccc(Nc2ncc3nnn(-c4cccc(CNC(=O)C5CC5)c4)c3n2)cc1 [Compound 206] | < 1e-08 | < 1e-08 |
| COc1cccc(-n2nnc3cnc(Nc4cccc(S(C)(=O)=O)c4)nc32)c1 [Compound 53] | < 1e-08 | < 1e-08 |
| COCCOc1cccc(Nc2ncc3nnn(-c4cccc(CCO)c4)c3n2)c1 [Compound 262] | < 1e-08 | < 1e-08 |
